Reference: patent publication US20250073248A1, “BIORESORBABLE CATIONIC STEROIDAL ANTIMICROBIAL COMPOUNDS WITH GLYCERIDE LINKAGES” (BRIGHAM YOUNG UNIVERSITY, priority 2023, published 2025)
In brackets after ≈: the same amount, converted by molar mass.

Assays:
[1] = tested on: methicillin-resistant Staphylococcus aureus (MRSA); assay: MIC and MBC, broth microdilution, MRSA (Table 1); format: cell-based; conditions: Staphylococcus aureus
From the text: (§1) To investigate the antimicrobial impact of structural variance in the novel bioresorbable CSA compounds disclosed herein,Pseudomonas aeruginosa 01 (PA01), methicillin-resistant Staphylococcus aureus (MRSA), and Candida albicans (CA) were selected, representing Gram-negative bacterial, Gram-positive bacterial, and fungal pathogens of high or critical priority on the world health organization's priority lists for bacteria and fungi. Earlier applications of CSA compounds have focused on preventing medical device infections, and all three strains are commonly found in colonized implants, making efficacy against these pathogens an important indicator of future applicability.
(§2) All compounds were screened against these pathogens to determine their minimum inhibitory concentration (MIC), minimum bactericidal concentration (MBC), and minimum fungicidal concentration (MFC) using a broth microdilution method. […] Of these three, only CSA-4110 was similarly active against PA01and CA, inhibiting growth at 8 μg/mL.

[2] = tested on: Candida albicans (CA); assay: MIC and MFC, broth microdilution, CA (Table 1); format: cell-based; conditions: Candida albicans
From the text: as §1, §2

[3] = tested on: C. albicans ATCC 90028; assay: MIC/MFC of CSA-4110, fungi (Table 4); format: cell-based; conditions: Candida albicans, ATCC90028
Description: as §2
(§3) CSA-4110 was evaluated further against a broader range of bacterial and fungal strains. Acinetobacter baumannii and several isolates of Staphylococcus aureus, Klebsiella pneumoniae, and Candida auris were selected, further broadening the coverage of high and critical priority pathogens. Streptococcus uberis, Staphylococcus pseudintermedius, Proteus mirabilis, and Escherichia coli were also screened to obtain a more complete efficacy profile. […] For comparison, previous work established the MICs of CSA-131 against strains of Staphylococcus aureus, Pseudomonas aeruginosa, and Candida albicans at 0.5-2 μg/mL

[4] = tested on: C. auris CDC 381; assay: MIC/MFC of CSA-4110, fungi (Table 4); format: cell-based, Candida auris; conditions: Candidozyma auris, CDC381
Description: as §2, §3

[5] = tested on: C. auris CDC 384; assay: MIC/MFC of CSA-4110, fungi (Table 4); format: cell-based, Candida auris; conditions: Candidozyma auris, CDC384
Description: as §2, §3

[6] = tested on: C. auris CDC 385; assay: MIC/MFC of CSA-4110, fungi (Table 4); format: cell-based, Candida auris; conditions: Candidozyma auris, CDC385
Description: as §2, §3

[7] = tested on: C. auris CDC 388; assay: MIC/MFC of CSA-4110, fungi (Table 4); format: cell-based, Candida auris; conditions: Candidozyma auris, CDC388
Description: as §2, §3

[8] = tested on: C. auris CDC 390; assay: MIC/MFC of CSA-4110, fungi (Table 4); format: cell-based, Candida auris; conditions: Candidozyma auris, CDC390
Description: as §2, §3

[9] = tested on: methicillin-resistant Staphylococcus aureus (MRSA); assay: Example 1 MIC/MBC (FIG. 1, FIG. 2), MRSA; format: cell-based
Description: (§4) The antimicrobial activities of CSA-4108, CSA-4110, CSA-4112, and CSA-4114 were determined relative to methicillin-resistant Staphylococcus aureus (MRSA), Pseudomonas aeruginosa (Pa), and Candida albicans 90028. The minimum inhibitory concentration (MIC) for CSA-4108, CSA-4110, CSA-4112, and CSA-4114 relative to the foregoing microbes is graphically reported in FIG. 1. The minimum bactericidal concentration (MBC) and minimum fungicidal concentration […] for CSA-4108, CSA-4110, CSA-4112, and CSA-4114 relative to the foregoing microbes are graphically reported in FIG. 2.

[10] = tested on: Pseudomonas aeruginosa (Pa); assay: Example 1 MIC/MBC (FIG. 1, FIG. 2), Pa; format: cell-based
Description: as §4

[11] = tested on: Candida albicans 90028; assay: Example 1 MIC/MFC (FIG. 1, FIG. 2), C. albicans; format: cell-based
Description: as §4

[12] = physchem; format: physicochemical; conditions: for half-life: buffer
Description: (§5) The stability, more particularly the rate of hydrolysis in water, of CSA-4110 was tested at various pH values or when exposed to lipase.
(§6) To measure the stability of CSA-4110 under various conditions (pH and presence of lipase), monitored degradation over time by HPLC. To enable UV/visible detection, CSA-4110 required derivatization with a chromophore. A precolumn derivatization method was adapted using Fmoc-Cl. This method also required CSA-131 as an internal standard to eliminate errors due to volumetric variations.
(§7) With a reliable quantitative analysis method in hand, the optimal storage conditions were determined for CSA-4110 in solution and how quickly CSA-4110 degrades when exposed to mammalian lipases and varied pH. Reference is again made to FIGS. 3A-3D.

[13] = tested on: lipase; assay: Stability (hydrolysis) in the presence of lipase, HPLC; format: in vitro ADME
Description: as §5, §6, §7

[14] = Critical micelle concentration, orange OT dye solubilization; format: physicochemical; conditions: aqueous solution with orange OT dye, water; FIG. 4; read-out: critical micelle concentration (CMC), solubilization of orange OT
Description: Previous studies have shown membrane disruption and permeabilization to be the mechanism of action of other CSA compounds. The critical micelle concentration (CMC) of CSA-4110 was measured to determine if aggregation was necessary for antimicrobial activity (see FIG. 4). This assay involves using a hydrophobic dye (orange OT) that is insoluble in water to measure what concentration of CSA-4110 is required to solubilize orange OT. Entry of orange OT into solution is due to micelle formation by CSA-4110 and can be quantified with a spectrophotometer.

[15] = tested on: MRSA ATCC BAA-42; assay: Membrane depolarization, DiSC2(5) fluorescence; format: cell-based, Staphylococcus aureus; conditions: 8 μg/mL, added at 140 seconds, FIG. 5
Description: Reference is made to FIGS. 4 and 5. […] CSA-131 or CSA-4110 was added at 140 second to achieve 8 μg/mL after addition.
Antimicrobial peptides (AMPs) and CSA compounds are known to permeabilize bacterial membranes. For bacterial survival, the cytoplasmic membrane must be polarized. Depolarization of this membrane prevents ATP synthesis and leads to cell death. The dye 3,3′-diethylthiadicarbocyanine iodide (DiSC2(5)) can be used to measure cell membrane polarization. Fluorescence of this dye is decreased when it inserts into polarized membranes, and membrane depolarization results in substantial increases in fluorescence (see FIG. 5).
MRSA was used to explore the impact of CSA-4110 on membrane depolarization and compared results to those with ceragenin CSA-131. […] Fluorescence was monitored over time after addition of CSA-4110 or CSA-131. which incorporated into cellular membranes.

CCCCCCCCCC(=O)OCC(O)COC(=O)CC[C@@H](C)[C@H]1CC[C@H]2[C@@H]3[C@H](OC(=O)CCN)C[C@@H]4C[C@H](OC(=O)CCN)CC[C@]4(C)[C@H]3C[C@H](OC(=O)CCN)[C@]12C (stereo partly drawn) [CSA-4110]
MBC ([1]; MBC, value in parentheses, kills at least 99.9%): 8 µg/mL (≈ 9.41 µM)
MIC ([1]; first value of cell): ≤ 8 µg/mL
MBC ([2]; MFC, value in parentheses): 16 µg/mL (≈ 18.8 µM)
MIC ([2]; first value of cell): 8 µg/mL (≈ 9.41 µM)
MBC [3]: 16 µg/mL (≈ 18.8 µM)
MIC [3]: 4 µg/mL (≈ 4.71 µM)
MBC [4]: 8 µg/mL (≈ 9.41 µM)
MIC [4]: 8 µg/mL (≈ 9.41 µM)
MBC [5]: 16 µg/mL (≈ 18.8 µM)
MIC [5]: 4 µg/mL (≈ 4.71 µM)
MBC [6]: 16 µg/mL (≈ 18.8 µM)
MIC [6]: 8 µg/mL (≈ 9.41 µM)
MBC [7]: 16 µg/mL (≈ 18.8 µM)
MIC [7]: 8 µg/mL (≈ 9.41 µM)
MBC [8]: 16 µg/mL (≈ 18.8 µM)
MIC [8]: 8 µg/mL (≈ 9.41 µM)
MBC (FIG. 2), ranking in words [9]: lowest MBC and MFC
MIC (FIG. 1), ranking in words [9]: lowest MIC
MBC (FIG. 2), ranking in words ([10]; PA): lowest MBC and MFC
MIC (FIG. 1), ranking in words ([10]; Pa): lowest MIC
MFC (FIG. 2), ranking in words [11]: lowest MBC and MFC
MIC (FIG. 1), ranking in words [11]: same MIC
half-life ([12]; pH 7.2): 108 h
half-life ([12]; pH 10): 24 h
stability / hydrolysis in aqueous solution ([12]; pH 7.2): less stable
stability / hydrolysis in aqueous solution ([12]; pH 10): unstable
hydrolysis in aqueous solution containing lipase ([13]; FIG. 3D): hydrolyzed most rapidly
half-life ([13]; mammalian (lipase; species not named), lipase in aqueous solution, dissolved with a lipase at room temperature at pH=6.9): 1 h
critical micelle concentration [14]: ~1000 µg/mL
fluorescence of DiSC2(5) after addition (membrane depolarization) [15]: rapid increase of fluorescence
